Experimental data as given in patent publication US9452185B2, “Mesenchymal stem cells and supports for tissue regeneration, repair and reconstruction” (THE TEXAS A&M UNIVERSITY SYSTEM, priority 2009, dated 2016).
Entries after “also recorded” stand apart in the source; their conditions may differ.

Test system: hMSCs
Assay: ECM production by hMSC monolayers (nodules, recovered volume, calcium)
Format: cell-based, human
Procedure: Micro computer aided tomography (μCT) briefly included scanning of identical calvaria over 360° using a 50 kV beam with a camera resolution of 12 μm. Images were captured every 0.4° with flat field correction and frame averaging enabled. Using mock specimens, grayscale ranges were calibrated over intact bone, partially formed bone and radiolucent tissue over a fixed linear range (corresponding to approximately −100 to +1000 Hounsfield units). Axial reconstructions were generated from the scans and quantified using a appropriate CT software. Once again, each reconstruction parameter was identical and performed over a fixed and linear intensity range in each case so as to reproducibly distinguish bone, partial bone and radiolucent tissue. In each case, ring artifact, smoothing, and beam hardening corrections were enabled. Three dimensional renderings for qualitative appraisal were generated using one or more volume software. Measurements of recovered matrix volume were performed using similar parameters, but the beam power was lowered to 30 kV. For extracellular matrix (ECM) production, hMSC monolayers were treated for 8 days with GW9662 or control OBM media in the usual manner described previously. Mineralizing osteogenic media was then added for a further 10 days with changes every 2 days. Hereafter, all volumes refer to a single 150 cm^2 monolayer culture. Monolayers were washed in PBS and frozen at −80° C. to disrupt cell membranes, thawed to ambient temperature and scraped from the culture plate. Recovered cells and ECM were then pelleted by centrifugation (1,800 G) and suspended in 10 mL of lysis buffer consisting of PBS containing 0.1% (v/v) Triton X100, 1 mM MgCl2, 10 μg mL^−1 DNAse I and 10 μg mL^−1 RNAseA. […] Calcium levels in matrices described were determined using an acid hydrolysis ArsenazoIII method previously described by others. […] Colorimetric determination of calcium was performed by addition of Arsenazo III compound and monitoring the change in absorbance at 595 nm using a plate reader.

In the case of O=C(Nc1ccccc1)c1cc([N+](=O)[O-])ccc1Cl [GW9662, 2-chloro-5-nitro-N-phenyl-benzamide], the “calcium content in recovered ECM” value (GW9662 vs DMSO) is reported as “elevated calcium levels; also recorded: substantially more calcium mineral than controls”, the “volume of ECM recovered” value (GW9662 vs vehicle treated cells) is reported as “greater volume of ECM; also recorded: substantial increase in the yield” and the “ECM nodules by phase contrast microscopy” value (hMSC cultures, GW9662 treatment) is reported as “distinct formation of nodules; also recorded: increased”.
